Experimental data: BindingDB's records for doi:10.1021/jm800940u (Schering-Plough Research Institute, 2009)

biological target: Genome polyprotein (Hepatitis C virus genotype 1a (isolate H77), UniProt P27958); test: Continuous Spectrophotometric Assay; details: not given
Description: Proteolytic cleavage of the ester linkage between the Nva (L-norvaline) and the chromophore (PAP) was monitored for change in absorbance at 370 nm. Initial velocities were determined using linear regression and kinetic constants were obtained by fitting the data to the Michaelis-Menten equation.

Genome polyprotein, sequence (P27958 1027-1657 limits assumed): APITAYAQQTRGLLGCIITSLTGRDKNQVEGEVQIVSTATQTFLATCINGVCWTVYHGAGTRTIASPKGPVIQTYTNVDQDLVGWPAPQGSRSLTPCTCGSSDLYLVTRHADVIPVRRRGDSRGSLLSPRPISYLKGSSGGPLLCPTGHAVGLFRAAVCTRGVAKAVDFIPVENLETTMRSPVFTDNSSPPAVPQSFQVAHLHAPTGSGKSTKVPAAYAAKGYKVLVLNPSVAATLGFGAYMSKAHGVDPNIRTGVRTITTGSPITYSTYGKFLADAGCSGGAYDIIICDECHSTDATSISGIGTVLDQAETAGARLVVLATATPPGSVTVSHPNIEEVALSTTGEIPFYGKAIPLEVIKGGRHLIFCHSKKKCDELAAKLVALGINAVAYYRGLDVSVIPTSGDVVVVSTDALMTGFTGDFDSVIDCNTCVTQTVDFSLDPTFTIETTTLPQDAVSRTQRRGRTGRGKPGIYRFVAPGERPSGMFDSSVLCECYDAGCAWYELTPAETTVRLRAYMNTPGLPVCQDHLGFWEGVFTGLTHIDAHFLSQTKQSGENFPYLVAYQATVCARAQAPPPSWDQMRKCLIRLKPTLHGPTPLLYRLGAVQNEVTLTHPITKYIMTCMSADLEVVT

| Ki [nM] | Compound |
| --- | --- |
| 2 | C=CCNC(=O)C(=O)[C@@H]1CCCCCCCCC[C@H](NC(=O)N[C@H](CN2C(=O)CC(C)(C)CC2=O)C(C)(C)C)C(=O)N2C[C@H]3[C@@H]([C@H]2C(=O)N1)C3(C)C [2-[(3S,13S,16S,17R,19S)-3-({[(2S)-1-(4,4-dimethyl-2,6-dioxopiperidin-1-yl)-3,3-dimethylbutan-2-yl]carbamoyl}amino)-18,18-dimethyl-2,15-dioxo-1,14-diazatricyclo[14.4.0.0^{17,19}]icosan-13-yl]-2-oxo-N-(prop-2-en-1-yl)acetamide] |
| 7 | C=CCNC(=O)C(=O)[C@@H]1CCCCCCCCC[C@H](NC(=O)N[C@H](CN(C)S(=O)(=O)c2ccccn2)C(C)(C)C)C(=O)N2C[C@H]3[C@@H]([C@H]2C(=O)N1)C3(C)C [2-[(3S,13S,16S,17R,19S)-3-({[(2S)-3,3-dimethyl-1-[methyl(pyridine-2-)sulfonamido]butan-2-yl]carbamoyl}amino)-18,18-dimethyl-2,15-dioxo-1,14-diazatricyclo[14.4.0.0^{17,19}]icosan-13-yl]-2-oxo-N-(prop-2-en-1-yl)acetamide] |
| 13 | C=CCNC(=O)C(=O)[C@@H]1CCCCCCCCC[C@H](NC(=O)N[C@H](CN(C)S(=O)(=O)N(C)C)C(C)(C)C)C(=O)N2C[C@H]3[C@@H]([C@H]2C(=O)N1)C3(C)C [2-[(3S,13S,16S,17R,19S)-3-({[(2S)-1-[(dimethylsulfamoyl)(methyl)amino]-3,3-dimethylbutan-2-yl]carbamoyl}amino)-18,18-dimethyl-2,15-dioxo-1,14-diazatricyclo[14.4.0.0^{17,19}]icosan-13-yl]-2-oxo-N-(prop-2-en-1-yl)acetamide] |
| 3 | C=CCNC(=O)C(=O)[C@@H]1CCCCCCCCC[C@H](NC(=O)N[C@H](CN(C)S(C)(=O)=O)C(C)(C)C)C(=O)N2C[C@H]3[C@@H]([C@H]2C(=O)N1)C3(C)C [2-[(3S,13S,16S,17R,19S)-3-({[(2S)-1-[methane(methyl)sulfonamido]-3,3-dimethylbutan-2-yl]carbamoyl}amino)-18,18-dimethyl-2,15-dioxo-1,14-diazatricyclo[14.4.0.0^{17,19}]icosan-13-yl]-2-oxo-N-(prop-2-en-1-yl)acetamide] |
| 2 | C=CCNC(=O)C(=O)[C@@H]1CCCCCCCCC[C@H](NC(=O)N[C@H](CN2CCC(C)(C)CC2=O)C(C)(C)C)C(=O)N2C[C@H]3[C@@H]([C@H]2C(=O)N1)C3(C)C [2-[(3S,13S,16S,17R,19S)-3-({[(2S)-1-(4,4-dimethyl-2-oxopiperidin-1-yl)-3,3-dimethylbutan-2-yl]carbamoyl}amino)-18,18-dimethyl-2,15-dioxo-1,14-diazatricyclo[14.4.0.0^{17,19}]icosan-13-yl]-2-oxo-N-(prop-2-en-1-yl)acetamide] |

More lines, now with the values behind:

| Compound | Ki [nM] |
| --- | --- |
| C=CCNC(=O)C(=O)[C@@H]1CCCCCCCCC[C@H](NC(=O)N[C@H](C(=O)C2CC2)C2CCCCC2)C(=O)N2C[C@H]3[C@@H]([C@H]2C(=O)N1)C3(C)C [2-[(3S,13S,16S,17R,19S)-3-({[(1S)-1-cyclohexyl-2-cyclopropyl-2-oxoethyl]carbamoyl}amino)-18,18-dimethyl-2,15-dioxo-1,14-diazatricyclo[14.4.0.0^{17,19}]icosan-13-yl]-2-oxo-N-(prop-2-en-1-yl)acetamide] | 6 |
| C=CCNC(=O)C(=O)[C@@H]1CCCCCCCCC[C@H](NC(=O)N[C@H](CN2C(=O)C3CCC(C3)C2=O)C(C)(C)C)C(=O)N2C[C@H]3[C@@H]([C@H]2C(=O)N1)C3(C)C [2-[(3S,13S,16S,17R,19S)-3-({[(2S)-1-{2,4-dioxo-3-azabicyclo[3.2.1]octan-3-yl}-3,3-dimethylbutan-2-yl]carbamoyl}amino)-18,18-dimethyl-2,15-dioxo-1,14-diazatricyclo[14.4.0.0^{17,19}]icosan-13-yl]-2-oxo-N-(prop-2-en-1-yl)acetamide] | 3 |
| C=CCNC(=O)C(=O)[C@@H]1CCCCCCCCC[C@H](NC(=O)N[C@H](CN2Cc3sccc3S2(=O)=O)C(C)(C)C)C(=O)N2C[C@H]3[C@@H]([C@H]2C(=O)N1)C3(C)C [2-[(3S,13S,16S,17R,19S)-3-({[(2S)-1-(1,1-dioxo-2H,3H-1,4,2-thieno[2,3-d][1,2]thiazol-2-yl)-3,3-dimethylbutan-2-yl]carbamoyl}amino)-18,18-dimethyl-2,15-dioxo-1,14-diazatricyclo[14.4.0.0^{17,19}]icosan-13-yl]-2-oxo-N-(prop-2-en-1-yl)acetamide] | 7 |

same assay, conditions: pH 6.5; 30 °C

| Ki [nM] | Compound |
| --- | --- |
| 10 | CCNC(=O)C(=O)[C@@H]1CCCCCCCCC[C@H](NC(=O)N[C@H](CN(C)S(=O)(=O)c2cccs2)C(C)(C)C)C(=O)N2C[C@H]3[C@@H]([C@H]2C(=O)N1)C3(C)C [2-[(3S,13S,16S,17R,19S)-3-({[(2S)-3,3-dimethyl-1-[methyl(thiophene-2-)sulfonamido]butan-2-yl]carbamoyl}amino)-18,18-dimethyl-2,15-dioxo-1,14-diazatricyclo[14.4.0.0^{17,19}]icosan-13-yl]-N-ethyl-2-oxoacetamide] |
| 3 | CN(C[C@@H](NC(=O)N[C@H]1CCCCCCCCC[C@@H](C(=O)C(N)=O)NC(=O)[C@@H]2[C@@H]3[C@H](CN2C1=O)C3(C)C)C(C)(C)C)S(C)(=O)=O [2-[(3S,13S,16S,17R,19S)-3-({[(2S)-1-[methane(methyl)sulfonamido]-3,3-dimethylbutan-2-yl]carbamoyl}amino)-18,18-dimethyl-2,15-dioxo-1,14-diazatricyclo[14.4.0.0^{17,19}]icosan-13-yl]-2-oxoacetamide] |
| 2 | CN(C[C@@H](NC(=O)N[C@H]1CCCCCCCCC[C@@H](C(=O)C(N)=O)NC(=O)[C@@H]2[C@@H]3[C@H](CN2C1=O)C3(C)C)C(C)(C)C)S(=O)(=O)c1cccs1 [2-[(3S,13S,16S,17R,19S)-3-({[(2S)-3,3-dimethyl-1-[methyl(thiophene-2-)sulfonamido]butan-2-yl]carbamoyl}amino)-18,18-dimethyl-2,15-dioxo-1,14-diazatricyclo[14.4.0.0^{17,19}]icosan-13-yl]-2-oxoacetamide] |
| 21 | CN(C[C@@H](NC(=O)N[C@H]1CCCCCCCCC[C@@H](C(=O)C(=O)NCC2CC2)NC(=O)[C@@H]2[C@@H]3[C@H](CN2C1=O)C3(C)C)C(C)(C)C)S(=O)(=O)c1cccs1 [N-(cyclopropylmethyl)-2-[(3S,13S,16S,17R,19S)-3-({[(2S)-3,3-dimethyl-1-[methyl(thiophene-2-)sulfonamido]butan-2-yl]carbamoyl}amino)-18,18-dimethyl-2,15-dioxo-1,14-diazatricyclo[14.4.0.0^{17,19}]icosan-13-yl]-2-oxoacetamide] |

Further lines, the molecule ahead of its results:

| Compound | Ki [nM] |
| --- | --- |
| CC(C)(C)OC(=O)N[C@H]1CCCCCCCCCC[C@@H](C(=O)C(N)=O)NC(=O)[C@@H]2[C@@H]3[C@H](CN2C1=O)C3(C)C [tert-butyl N-[(3S,14S,17S,18R,20S)-14-(carbamoylcarbonyl)-19,19-dimethyl-2,16-dioxo-1,15-diazatricyclo[15.4.0.0^{18,20}]henicosan-3-yl]carbamate] | 59 |
| CN(C)C(=O)[C@@H](NC(=O)CNC(=O)C(=O)[C@@H]1CCCCCCCCCC[C@H](NC(=O)OC(C)(C)C)C(=O)N2C[C@H]3[C@@H]([C@H]2C(=O)N1)C3(C)C)c1ccccc1 [tert-butyl N-[(3S,14S,17S,18R,20S)-14-{[({[(S)-(dimethylcarbamoyl)(phenyl)methyl]carbamoyl}methyl)carbamoyl]carbonyl}-19,19-dimethyl-2,16-dioxo-1,15-diazatricyclo[15.4.0.0^{18,20}]henicosan-3-yl]carbamate] | 6 |
| CC(C)(C)OC(=O)N[C@H]1CCCCCCC[C@@H](C(=O)C(N)=O)NC(=O)[C@@H]2[C@@H]3[C@H](CN2C1=O)C3(C)C [tert-butyl N-[(3S,11S,14S,15R,17S)-11-(carbamoylcarbonyl)-16,16-dimethyl-2,13-dioxo-1,12-diazatricyclo[12.4.0.0^{15,17}]octadecan-3-yl]carbamate] | 210 |
| CC1(NC(=O)N[C@H]2CCCCCCCCCC[C@@H](C(=O)C(N)=O)NC(=O)[C@@H]3[C@@H]4[C@H](CN3C2=O)C4(C)C)CCCCC1 [2-[(3S,14S,17S,18R,20S)-19,19-dimethyl-3-{[(1-methylcyclohexyl)carbamoyl]amino}-2,16-dioxo-1,15-diazatricyclo[15.4.0.0^{18,20}]henicosan-14-yl]-2-oxoacetamide] | 36 |
| CC(C)(C)OC(=O)N[C@H]1CCCCCCCCCC[C@@H](C(=O)C(=O)NCC(=O)NCc2ccccc2)NC(=O)[C@@H]2[C@@H]3[C@H](CN2C1=O)C3(C)C [tert-butyl N-[(3S,14S,17S,18R,20S)-14-({[(benzylcarbamoyl)methyl]carbamoyl}carbonyl)-19,19-dimethyl-2,16-dioxo-1,15-diazatricyclo[15.4.0.0^{18,20}]henicosan-3-yl]carbamate] | 89 |
| CC(C)(C)OC(=O)N[C@H]1CCCCCCCC[C@@H](C(=O)C(N)=O)NC(=O)[C@@H]2[C@@H]3[C@H](CN2C1=O)C3(C)C [tert-butyl N-[(3S,12S,15S,16R,18S)-12-(carbamoylcarbonyl)-17,17-dimethyl-2,14-dioxo-1,13-diazatricyclo[13.4.0.0^{16,18}]nonadecan-3-yl]carbamate] | 36 |
| CC(C)[C@H](NC(=O)N[C@H]1CCCCCCCCC[C@@H](C(=O)C(N)=O)NC(=O)[C@@H]2[C@@H]3[C@H](CN2C1=O)C3(C)C)C(=O)C1CC1 [2-[(3S,13S,16S,17R,19S)-3-({[(2S)-1-cyclopropyl-3-methyl-1-oxobutan-2-yl]carbamoyl}amino)-18,18-dimethyl-2,15-dioxo-1,14-diazatricyclo[14.4.0.0^{17,19}]icosan-13-yl]-2-oxoacetamide] | 11 |
| C=CCCCC[C@H](NC(=O)[C@@H]1[C@@H]2[C@H](CN1C(=O)[C@H](CCCCC=C)NC(=O)OC(C)(C)C)C2(C)C)C(=O)C(N)=O [tert-butyl N-[(2S)-1-[(1R,2S,5S)-2-{[(2S)-1-carbamoyl-1-oxooct-7-en-2-yl]carbamoyl}-6,6-dimethyl-3-azabicyclo[3.1.0]hexan-3-yl]-1-oxooct-7-en-2-yl]carbamate] | 250 |
